Data reported in article PMC10763615, “Identification and engineering of potent cyclic peptides with selective or promiscuous binding through biochemical profiling and bioinformatic data analysis” (RSC Chemical Biology, 2023).
Where two headings read alike, the source gives them in different places. Positions of bridges follow the written chain, without caps; N, C: chain ends. Residues, ends and D or L forms follow the SMILES beside them.

Tests used:
Type in all cases: binding
[1] = target: T1, FGF-R1C ECD (Homo sapiens, UniProt P11362); test: biochemical; parameters: DNA constructs for the extracellular domain (ECD) of human FGF-; HPC4 (C); made in house; host or cells: HEK 293-6E
T1 sequence (P11362 22-376 limits assumed): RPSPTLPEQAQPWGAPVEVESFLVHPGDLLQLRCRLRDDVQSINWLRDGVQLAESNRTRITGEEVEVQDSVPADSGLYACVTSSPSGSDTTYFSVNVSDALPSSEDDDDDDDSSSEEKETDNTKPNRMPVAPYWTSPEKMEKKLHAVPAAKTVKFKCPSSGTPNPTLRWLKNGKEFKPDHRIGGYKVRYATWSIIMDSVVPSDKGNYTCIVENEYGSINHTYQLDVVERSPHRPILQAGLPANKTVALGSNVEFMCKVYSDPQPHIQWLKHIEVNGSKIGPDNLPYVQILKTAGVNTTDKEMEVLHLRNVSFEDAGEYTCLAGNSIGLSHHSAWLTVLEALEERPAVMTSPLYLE
Outline: (§1)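 Streptavidin biosensors carrying biotinylated FGF receptor ECD were immersed in peptide (~1 μM for crude single-point runs, a concentration series for purified peptides) and then in peptide-free buffer. KD was obtained by fitting the BLI association and dissociation curves.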

[2] = target: T2, FGF-R3C ECD (Homo sapiens, UniProt P22607); test: biochemical; parameters: DNA constructs for the extracellular domain (ECD) of human FGF-; HPC4 (C); made in house; host or cells: HEK 293-6E
T2 sequence (P22607 23-375 limits assumed): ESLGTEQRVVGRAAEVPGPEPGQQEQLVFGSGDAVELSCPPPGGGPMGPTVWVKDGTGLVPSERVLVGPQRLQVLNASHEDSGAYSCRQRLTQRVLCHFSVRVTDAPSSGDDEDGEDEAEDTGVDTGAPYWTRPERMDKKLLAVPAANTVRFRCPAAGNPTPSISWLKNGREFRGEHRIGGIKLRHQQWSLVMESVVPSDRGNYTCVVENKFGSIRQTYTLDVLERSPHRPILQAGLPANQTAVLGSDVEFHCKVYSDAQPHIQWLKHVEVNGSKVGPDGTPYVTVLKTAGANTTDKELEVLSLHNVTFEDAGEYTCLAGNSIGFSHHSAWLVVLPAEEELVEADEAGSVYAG
Outline: as §1

[3] = target: T3, FGF-R4 ECD (Homo sapiens, UniProt P22455); test: single concentration BLI of crude peptides; settings: read-out: KD (4)
T3 construct: DNA constructs for the extracellular domain (ECD) of human FGF-; HPC4 (C); made in house; host or cells: HEK 293-6E
T3 sequence (P22455 22-369 limits assumed): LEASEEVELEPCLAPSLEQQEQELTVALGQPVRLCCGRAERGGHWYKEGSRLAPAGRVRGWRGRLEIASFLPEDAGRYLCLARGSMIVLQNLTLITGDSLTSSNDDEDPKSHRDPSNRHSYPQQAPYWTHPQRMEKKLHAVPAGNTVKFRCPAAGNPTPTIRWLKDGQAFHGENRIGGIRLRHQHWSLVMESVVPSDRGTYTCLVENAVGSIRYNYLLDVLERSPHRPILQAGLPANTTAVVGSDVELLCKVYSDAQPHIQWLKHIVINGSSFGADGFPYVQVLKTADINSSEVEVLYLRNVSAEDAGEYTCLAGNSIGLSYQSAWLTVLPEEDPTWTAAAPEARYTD
Outline: as §1

[4] = crude T18 selection 1 (1:1:1) peptides, single concentration BLI (Table S4)
[5] = crude NNK peptides, single concentration BLI (Table S3)

Row | Compound | Kd [1] | Kd [2] | Kd [3, 4] | Kd [3, 5]
1 | CC[C@H](C)[C@@H]1NC(=O)[C@H](CC(C)C)NC(=O)[C@H](Cc2ccccc2)NC(=O)[C@H](Cc2ccc(O)cc2)NC(=O)[C@H](CCCCN)NC(=O)[C@H](C)NC(=O)[C@@H](NC(=O)[C@H](CCSC)NC(C)=O)CSSC[C@@H](C(=O)NCC(=O)N[C@@H](CO)C(=O)NCC(=O)N[C@@H](CO)C(=O)N[C@@H](CC(=O)O)C(=O)N[C@@H](Cc2ccc(O)cc2)C(=O)N[C@@H](CCCCN)C(=O)N[C@@H](CC(=O)O)C(=O)N[C@@H](CC(=O)O)C(=O)N[C@@H](CC(=O)O)C(=O)N[C@@H](CC(=O)O)C(=O)N[C@@H](CCCCN)C(N)=O)NC(=O)[C@H](CCC(N)=O)NC(=O)[C@H](CCC(N)=O)NC(=O)[C@H](Cc2ccc(O)cc2)NC(=O)[C@H](C)NC(=O)[C@H](CCCNC(=N)N)NC(=O)[C@H](Cc2c[nH]c3ccccc23)NC1=O (Ac-MCAKYFLIWRAYQQCGSGSDYKDDDDK-NH2; disulfide 2-15) | > 10000 nM | > 10000 nM | 10 nM | –
2 | CSCC[C@H](NC(C)=O)C(=O)N[C@H]1CSSC[C@@H](C(=O)NCC(=O)N[C@@H](CO)C(=O)NCC(=O)N[C@@H](CO)C(=O)N[C@@H](CC(=O)O)C(=O)N[C@@H](Cc2ccc(O)cc2)C(=O)N[C@@H](CCCCN)C(=O)N[C@@H](CC(=O)O)C(=O)N[C@@H](CC(=O)O)C(=O)N[C@@H](CC(=O)O)C(=O)N[C@@H](CC(=O)O)C(=O)N[C@@H](CCCCN)C(N)=O)NC(=O)[C@H](Cc2ccc(O)cc2)NC(=O)[C@H](C(C)C)NC(=O)[C@H](CC(C)C)NC(=O)[C@H](C(C)C)NC(=O)[C@H](CCCCN)NC(=O)[C@H](CC(N)=O)NC(=O)[C@H](CC(C)C)NC(=O)[C@H](Cc2ccccc2)NC(=O)[C@H](CC(N)=O)NC(=O)[C@H](Cc2ccc(O)cc2)NC(=O)[C@H](Cc2ccc(O)cc2)NC1=O (Ac-MCYYNFLNKVLVYCGSGSDYKDDDDK-NH2; disulfide 2-14) | > 10000 nM | > 10000 nM | 8 nM | –
3 | CC[C@H](C)[C@@H]1NC(=O)[C@@H](NC(=O)[C@H](CCSC)NC(C)=O)CSSC[C@@H](C(=O)NCC(=O)N[C@@H](CO)C(=O)NCC(=O)N[C@@H](CO)C(=O)N[C@@H](CC(=O)O)C(=O)N[C@@H](Cc2ccc(O)cc2)C(=O)N[C@@H](CCCCN)C(=O)N[C@@H](CC(=O)O)C(=O)N[C@@H](CC(=O)O)C(=O)N[C@@H](CC(=O)O)C(=O)N[C@@H](CC(=O)O)C(=O)N[C@@H](CCCCN)C(N)=O)NC(=O)[C@H](C(C)C)NC(=O)[C@H](C)NC(=O)[C@H](Cc2c[nH]c3ccccc23)NC(=O)[C@H](Cc2ccccc2)NC(=O)[C@H](CC(=O)O)NC(=O)[C@H](CO)NC(=O)[C@H](CC(C)C)NC(=O)[C@H](CCCNC(=N)N)NC(=O)[C@H](Cc2ccc(O)cc2)NC1=O (Ac-MCIYRLSDFWAVCGSGSDYKDDDDK-NH2; disulfide 2-13) | 21 nM | 49 nM | – | 133 nM
4 | CC[C@H](C)[C@@H]1NC(=O)[C@H](Cc2ccc(O)cc2)NC(=O)[C@H](C)NC(=O)[C@H](C(C)C)NC(=O)[C@H](Cc2ccc(O)cc2)NC(=O)CNC(=O)[C@H](Cc2c[nH]cn2)NC(=O)[C@H]([C@@H](C)CC)NC(=O)[C@H]([C@@H](C)CC)NC(=O)[C@H](CO)NC(=O)[C@H](CC(C)C)NC(=O)[C@H](CC(N)=O)NC(=O)[C@@H](NC(=O)[C@H](CCSC)NC(C)=O)CSSC[C@@H](C(=O)NCC(=O)N[C@@H](CO)C(=O)NCC(=O)N[C@@H](CO)C(=O)N[C@@H](CC(=O)O)C(=O)N[C@@H](Cc2ccc(O)cc2)C(=O)N[C@@H](CCCCN)C(=O)N[C@@H](CC(=O)O)C(=O)N[C@@H](CC(=O)O)C(=O)N[C@@H](CC(=O)O)C(=O)N[C@@H](CC(=O)O)C(=O)N[C@@H](CCCCN)C(N)=O)NC1=O (Ac-MCNLSIIHGYVAYICGSGSDYKDDDDK-NH2; disulfide 2-15) | > 10000 nM | > 10000 nM | 1 nM | –
5 | CSCC[C@H](NC(C)=O)C(=O)N[C@H]1CSSC[C@@H](C(=O)NCC(=O)N[C@@H](CO)C(=O)NCC(=O)N[C@@H](CO)C(=O)N[C@@H](CC(=O)O)C(=O)N[C@@H](Cc2ccc(O)cc2)C(=O)N[C@@H](CCCCN)C(=O)N[C@@H](CC(=O)O)C(=O)N[C@@H](CC(=O)O)C(=O)N[C@@H](CC(=O)O)C(=O)N[C@@H](CC(=O)O)C(=O)N[C@@H](CCCCN)C(N)=O)NC(=O)[C@H](CC(C)C)NC(=O)[C@H](CCCNC(=N)N)NC(=O)[C@H](CCC(=O)O)NC(=O)[C@H](Cc2c[nH]c3ccccc23)NC(=O)[C@H](Cc2ccc(O)cc2)NC(=O)[C@H](Cc2ccccc2)NC(=O)[C@H](CO)NC(=O)[C@H](Cc2c[nH]cn2)NC(=O)[C@H](CCC(N)=O)NC(=O)[C@H](CC(=O)O)NC(=O)[C@H](Cc2ccc(O)cc2)NC(=O)[C@H](Cc2c[nH]c3ccccc23)NC1=O (Ac-MCWYDQHSFYWERLCGSGSDYKDDDDK-NH2; disulfide 2-15) | > 10000 nM | > 10000 nM | > 10000 nM | –
6 | CSCC[C@H](NC(C)=O)C(=O)N[C@H]1CSSC[C@@H](C(=O)NCC(=O)N[C@@H](CO)C(=O)NCC(=O)N[C@@H](CO)C(=O)N[C@@H](CC(=O)O)C(=O)N[C@@H](Cc2ccc(O)cc2)C(=O)N[C@@H](CCCCN)C(=O)N[C@@H](CC(=O)O)C(=O)N[C@@H](CC(=O)O)C(=O)N[C@@H](CC(=O)O)C(=O)N[C@@H](CC(=O)O)C(=O)N[C@@H](CCCCN)C(N)=O)NC(=O)[C@H](CCC(N)=O)NC(=O)[C@H](CCCCN)NC(=O)[C@H](Cc2ccc(O)cc2)NC(=O)[C@H](C(C)C)NC(=O)[C@H]([C@@H](C)O)NC(=O)[C@H](Cc2c[nH]c3ccccc23)NC(=O)[C@H](Cc2ccc(O)cc2)NC(=O)[C@H](CCCCN)NC(=O)[C@H](C(C)C)NC(=O)[C@H](Cc2c[nH]c3ccccc23)NC1=O (Ac-MCWVKYWTVYKQCGSGSDYKDDDDK-NH2; disulfide 2-13) | > 10000 nM | > 10000 nM | – | 207 nM
7 | CC[C@H](C)[C@@H]1NC(=O)[C@@H](NC(=O)[C@H](CCSC)NC(C)=O)CSSC[C@@H](C(=O)NCC(=O)N[C@@H](CO)C(=O)NCC(=O)N[C@@H](CO)C(=O)N[C@@H](CC(=O)O)C(=O)N[C@@H](Cc2ccc(O)cc2)C(=O)N[C@@H](CCCCN)C(=O)N[C@@H](CC(=O)O)C(=O)N[C@@H](CC(=O)O)C(=O)N[C@@H](CC(=O)O)C(=O)N[C@@H](CC(=O)O)C(=O)N[C@@H](CCCCN)C(N)=O)NC(=O)[C@@H]2CCCN2C(=O)[C@H](CCCNC(=N)N)NC(=O)[C@H](Cc2c[nH]c3ccccc23)NC(=O)[C@H](CCC(=O)O)NC(=O)[C@H](CCC(=O)O)NC(=O)[C@H](Cc2c[nH]c3ccccc23)NC(=O)[C@H](CCCCN)NC(=O)[C@H](CC(N)=O)NC(=O)[C@H](CCCCN)NC(=O)[C@H](CCCNC(=N)N)NC(=O)[C@H]([C@@H](C)O)NC1=O (Ac-MCITRKNKWEEWRPCGSGSDYKDDDDK-NH2; disulfide 2-15) | > 10000 nM | > 10000 nM | > 10000 nM | –
8 | CC[C@H](C)[C@@H]1NC(=O)[C@H](CC(C)C)NC(=O)[C@H](Cc2ccccc2)NC(=O)[C@H](Cc2ccc(O)cc2)NC(=O)[C@H](CCCCN)NC(=O)[C@H](C(C)C)NC(=O)[C@H](CCC(=O)O)NC(=O)[C@@H](NC(=O)[C@H](CCSC)NC(C)=O)CSSC[C@@H](C(=O)NCC(=O)N[C@@H](CO)C(=O)NCC(=O)N[C@@H](CO)C(=O)N[C@@H](CC(=O)O)C(=O)N[C@@H](Cc2ccc(O)cc2)C(=O)N[C@@H](CCCCN)C(=O)N[C@@H](CC(=O)O)C(=O)N[C@@H](CC(=O)O)C(=O)N[C@@H](CC(=O)O)C(=O)N[C@@H](CC(=O)O)C(=O)N[C@@H](CCCCN)C(N)=O)NC(=O)[C@H](Cc2c[nH]c3ccccc23)NC(=O)[C@H](CCCNC(=N)N)NC(=O)[C@H](CCCCN)NC(=O)[C@H](Cc2c[nH]c3ccccc23)NC1=O (Ac-MCEVKYFLIWKRWCGSGSDYKDDDDK-NH2; disulfide 2-14) | 650 nM | > 10000 nM | 15 nM | –
